In US20230041563A1, “N-(1,3,4-OXADIAZOL-2-YL)ARYLCARBOXAMIDES OR SALTS THEREOF, PREPARATION METHODS, HERBICIDAL COMPOSITIONS AND USES THEREOF” (priority 2018, published 2023):

Legend:
Test in all cases: Weeding effect in post-emergence stage (greenhouse pot spray)
Assay type in all cases: in vivo
Abutilon theophrasti = conditions: Table 3, dose 60 g a.i./ha
Description: (§1) The activity level criteria for plant damage (i.e., growth control rate) are as follows:
(§2) The above growth control rates are fresh weight control rates.
(§3) Experiment on weeding effect in post-emergence stage: monocotyledonous and dicotyledonous weed seeds (Descurainia sophia, Capsella bursa-pastoris, Abutilon theophrasti, Galium aparine, Stellaria media, Lithospermum arvense, rorippa indica, Alopecurus aequalis, Beckmannia syzigachne, Sclerochloa dura, Phleum paniculatum, Bromus japonicus, Aegilops tauschii, Phalaris arundinacea, Amaranthus retroflexus, Chenopodiaceae, Commelina communis, Sonchus arvensis, convolvulus arvensis, Cirsium setosum, Solanum nigrum, Acalypha australis, Digitaria sanguinalis, Echinochloa crusgalli, Setaria viridis, Setaria glauca, Leptochloa chinensis, Monochoria vaginalis, Sagittaria trifolia, Scirpus juncoides, Cyperus rotundus, Cyperus iria, Cyperus difformis, Fimbristylis, Portulaca oleracea, Xanthium sibiricum, Pharbitis nil) and major crop seeds (wheat, corn, rice, soybean, cotton, oilseed rape, millet, sorghum, potato, sesame, ricinus) were placed in plastic pots filled with soil, then covered with 0.5-2 cm of soil, allowed to grow in a good greenhouse environment. After 2 weeks of sowing, the test plants were treated in the 2 to 3 leaf stage. The tested compounds of the present invention were respectively dissolved in acetone, then added with Tween 80 and 1.5 liter/ha of emulsifiable concentrate of methyl oleate as synergist, diluted with a certain amount of water to obtain a solution with a certain concentration, and sprayed with a spray tower onto the plants. After the application, the plants were cultured for 3 weeks in the greenhouse, and then the experimental results of the weeding were counted. […]

Digitaria sanguinalis = system: Digitaria sanguinalis
Description: as §1, §2, §3

Setaria viridis = system: Setaria viridis
Description: as §1, §2, §3

Echinochloa crusgalli = system: Echinochloa crusgalli
Description: as §1, §2, §3

| SMILES | Digitaria sanguinahs (activity level) (Digitaria sanguinalis; Table 3, dose 500 g a.i./ha) | Setaria viridis (activity level) (Setaria viridis; Table 3, dose 500 g a.i./ha) | Echinochloa crusgali (activity level) (Echinochloa crusgalli; Table 3, dose 500 g a.i./ha) | also measured |
| --- | --- | --- | --- | --- |
| CCC(C)[S+]([O-])c1c(C(F)(F)F)ccc(C(=O)Nc2nnc(C)o2)c1F (mixture of isomers) [Compound 1-17] | – | – | – | Abutilon theophrasti (activity level) (Abutilon theophrasti): 5 (Level 5: growth control rate is above 85%); Digitaria sanguinahs (activity level) (Digitaria sanguinalis; Table 3, dose 60 g a.i./ha): 5 (Level 5: growth control rate is above 85%); Setaria viridis (activity level) (Setaria viridis; Table 3, dose 60 g a.i./ha): 5 (Level 5: growth control rate is above 85%) |
| CCOC[S+]([O-])c1c(C(F)(F)F)ccc(C(=O)Nc2nnc(C)o2)c1F (stereo not drawn) [1-444 (R-configuration)] | 5 (Level 5: growth control rate is above 85%) | 5 (Level 5: growth control rate is above 85%) | 5 (Level 5: growth control rate is above 85%) | – |
| CCOCC[S@+]([O-])c1c(C(F)(F)F)ccc(C(=O)Nc2nnc(C)o2)c1F [1-446 (R-configuration)] | 5 (Level 5: growth control rate is above 85%) | 5 (Level 5: growth control rate is above 85%) | 5 (Level 5: growth control rate is above 85%) | – |
| COC(C)C[S@+]([O-])c1c(C(F)(F)F)ccc(C(=O)Nc2nnc(C)o2)c1F (stereo partly drawn) [1-447 (R-configuration)] | 5 (Level 5: growth control rate is above 85%) | 5 (Level 5: growth control rate is above 85%) | 5 (Level 5: growth control rate is above 85%) | – |
| COCCC[S@@+]([O-])c1c(C(F)(F)F)ccc(C(=O)Nc2nnc(C)o2)c1F [1-448 (R-configuration)] | 5 (Level 5: growth control rate is above 85%) | 5 (Level 5: growth control rate is above 85%) | 5 (Level 5: growth control rate is above 85%) | – |
| Cc1nnc(NC(=O)c2ccc(C(F)(F)F)c([S@@+]([O-])CCOC(F)F)c2F)o1 [1-523 (R-configuration)] | 5 (Level 5: growth control rate is above 85%) | 5 (Level 5: growth control rate is above 85%) | 5 (Level 5: growth control rate is above 85%) | – |
| CC(C)=NOCC[S@@+]([O-])c1c(C(F)(F)F)ccc(C(=O)Nc2nnc(C)o2)c1F [1-525 (R-configuration)] | 5 (Level 5: growth control rate is above 85%) | 5 (Level 5: growth control rate is above 85%) | 5 (Level 5: growth control rate is above 85%) | – |
| CC(=O)C[S@@+]([O-])c1c(C(F)(F)F)ccc(C(=O)Nc2nnc(C)o2)c1F [1-552 (R-configuration)] | – | – | – | Digitaria sanguinahs (activity level) (Digitaria sanguinalis; Table 3, dose 125 g a.i./ha): 5 (Level 5: growth control rate is above 85%); Setaria viridis (activity level) (Setaria viridis; Table 3, dose 125 g a.i./ha): 5 (Level 5: growth control rate is above 85%); Echinochloa crusgali (activity level) (Echinochloa crusgalli; Table 3, dose 125 g a.i./ha): 5 (Level 5: growth control rate is above 85%) |
| CCC[S@+]([O-])c1c(C(F)(F)F)ccc(C(=O)Nc2nnc(CC)o2)c1F [2-8 (R-configuration)] | – | – | – | Digitaria sanguinahs (activity level) (Digitaria sanguinalis; Table 3, dose 250 g a.i./ha): 5 (Level 5: growth control rate is above 85%); Setaria viridis (activity level) (Setaria viridis; Table 3, dose 250 g a.i./ha): 5 (Level 5: growth control rate is above 85%); Echinochloa crusgali (activity level) (Echinochloa crusgalli; Table 3, dose 250 g a.i./ha): 5 (Level 5: growth control rate is above 85%) |
| CC[S@+]([O-])c1c(C(F)(F)F)ccc(C(=O)Nc2nnco2)c1F [3-5 (R-configuration)] | – | – | – | Digitaria sanguinahs (activity level) (Digitaria sanguinalis; Table 3, dose 120 g a.i./ha): 5 (Level 5: growth control rate is above 85%); Setaria viridis (activity level) (Setaria viridis; Table 3, dose 120 g a.i./ha): 5 (Level 5: growth control rate is above 85%); Echinochloa crusgali (activity level) (Echinochloa crusgalli; Table 3, dose 120 g a.i./ha): 5 (Level 5: growth control rate is above 85%) |
| CCC[S@@+]([O-])c1c(C(F)(F)F)ccc(C(=O)Nc2nnco2)c1F [3-8 (R-configuration)] | – | – | – | Digitaria sanguinahs (activity level) (Digitaria sanguinalis; Table 3, dose 60 g a.i./ha): 5 (Level 5: growth control rate is above 85%); Setaria viridis (activity level) (Setaria viridis; Table 3, dose 60 g a.i./ha): 5 (Level 5: growth control rate is above 85%); Echinochloa crusgali (activity level) (Echinochloa crusgalli; Table 3, dose 60 g a.i./ha): 5 (Level 5: growth control rate is above 85%) |
